Data from patent US20250163119A1, “COMPOUNDS FOR THE TREATMENT OF DIABETES OR OBESITY” (Eli Lilly and Company, priority 2023, published 2025).
*1 amine or outer side, *2 acyl side, *3 side chain or, on linkers, in order; H or OH if unused. Side-chain parts run from the residue outwards. [ ]: non-standard residue; d: D form. The star is where a group is joined. C20 diacid = O=C(O)CCCCCCCCCCCCCCCCCCC(=O)*; γGlu = O=C(O)[C@H](CCC(=O)[*:2])N[*:1]; εLys = N[C@@H](CCCCN[*:1])C(=O)[*:2]; pGlu = O=C1CC[C@@H](C(=O)O)N1; αMeL = CC(C)C[C@](C)(N)C(=O)O; AEEA = NCCOCCOCC(=O)O; Aib = CC(C)(N)C(=O)O

What was measured:
human CRHR2 = molecular target: T1, human CRHR2 (Homo sapiens, UniProt Q13324); experiment: Human CRHR2 cAMP assay (HTRF) in HEK293 cells stably expressing human CRHR2; type: cell-based; conditions: HEK293 cells overexpressing human CRHR2; relative EC50, maximum 10 nM human UCN2; mean ± SE; read-out: hCRHR2 cAMP EC50 (pM, ± SE)
T1 construct: expressed in transfected cells
T1 sequence (Q13324 1-438 isoform Q13324-2): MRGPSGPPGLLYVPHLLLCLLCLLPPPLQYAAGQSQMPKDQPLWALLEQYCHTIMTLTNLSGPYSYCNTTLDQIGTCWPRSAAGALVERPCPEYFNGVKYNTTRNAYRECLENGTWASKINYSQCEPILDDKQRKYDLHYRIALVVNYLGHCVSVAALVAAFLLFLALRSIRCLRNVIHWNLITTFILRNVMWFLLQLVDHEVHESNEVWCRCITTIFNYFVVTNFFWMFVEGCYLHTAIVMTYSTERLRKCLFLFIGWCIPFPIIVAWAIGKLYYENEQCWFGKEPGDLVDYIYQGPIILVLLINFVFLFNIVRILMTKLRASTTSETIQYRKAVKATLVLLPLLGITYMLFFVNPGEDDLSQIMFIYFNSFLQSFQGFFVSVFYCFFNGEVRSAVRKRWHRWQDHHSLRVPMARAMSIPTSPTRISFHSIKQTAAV
In short: (§1)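 Peptide-stimulated cAMP was measured in stable HEK293 lines by HTRF ratio (665/620 nm), converted to pmol/well via standard curve. Assay buffer contained 0.25 mM IBMX, 0.1% casein and 5 mM HEPES pH 7.4. CRHR2b cells (5,000/well) were stimulated 30 min at room temperature; CRHR1 cells (25,000/well) 1 h at 37 °C.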

human CRHR1 = molecular target: T2, human CRHR1 (Homo sapiens, UniProt P34998); experiment: Human CRHR1 cAMP assay (HTRF) in HEK293 cells stably expressing human CRHR1; type: cell-based; conditions: HEK293 cells overexpressing human CRHR1; relative EC50, maximum 66 nM human UCN1; mean ± SE; read-out: hCRHR1 cAMP EC50 (pM, ± SE)
T2 construct: expressed in transfected cells
T2 sequence (P34998 24-415): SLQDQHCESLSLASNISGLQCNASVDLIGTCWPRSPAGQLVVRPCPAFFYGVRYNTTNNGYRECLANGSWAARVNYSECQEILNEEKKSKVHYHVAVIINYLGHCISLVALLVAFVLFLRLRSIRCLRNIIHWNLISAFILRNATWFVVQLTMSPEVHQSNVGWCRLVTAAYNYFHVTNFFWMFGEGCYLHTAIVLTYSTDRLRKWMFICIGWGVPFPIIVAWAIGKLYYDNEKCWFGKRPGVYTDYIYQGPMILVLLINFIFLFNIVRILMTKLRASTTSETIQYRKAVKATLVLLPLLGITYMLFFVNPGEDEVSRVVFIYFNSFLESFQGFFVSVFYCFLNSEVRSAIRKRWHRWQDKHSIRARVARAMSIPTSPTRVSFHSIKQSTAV
In short: as §1

Row | Substance | EC50 (human CRHR2) [pM] | EC50 (human CRHR1) [pM]
1 | Ac-GSPSIVTS[αMeL]DVPT[Aib][αMeL]LQKLLEQERAEKARQQAK([γGlu-AEEA-εLys-C20 diacid])EAAEILAQV-NH2 [SEQ ID NO: 2, Ac-GSPSIVTS αMeL DVPT Aib αMeL LQKLLEQERAEKARQQAK(γE-(2-[2-(2-Amino-ethoxy)-ethoxy]-acetyl)-ϵK-CO-(CH2)18-CO2H)EAAEILAQV-NH2] | 12.3 ± 1.8 | > 1e+07
2 | Ac-PPPIVTS[αMeL]DVPT[Aib][αMeL]LQKLLEQERAEKARQQAK([γGlu-AEEA-εLys-C20 diacid])EAAEILAQV-NH2 [SEQ ID NO: 48, Ac-PPPIVTS αMeL DVPT Aib αMeL LQKLLEQERAEKARQQAK(γE-(2-[2-(2-Amino-ethoxy)-ethoxy]-acetyl)-ϵK-CO-(CH2)18-CO2H)EAAEILAQV-NH2] | 26.7 ± 3.8 | > 1e+07

Substances with a lower EC50 (human CRHR2), results first:

Row | EC50 (human CRHR2) [pM] | EC50 (human CRHR1) [pM] | Substance
3 | 11.3 ± 3 | > 1e+07 | [pGlu]GSPSGIVTS[αMeL]DVPT[Aib][αMeL]LQKILEQERAEKARQQAK([γGlu-AEEA-εLys-C20 diacid])EAAEILAQV-NH2 [SEQ ID NO: 22, Pyr-GSPSGIVTS αMeL DVPT Aib αMeL LQKILEQERAEKARQQAK(γE-(2-[2-(2-Amino-ethoxy)-ethoxy]-acetyl)-ϵK-CO-(CH2)18-CO2H)EAAEILAQV-NH2]
4 | 9.3 ± 1.1 | > 1e+07 | Ac-GSPSIVTS[αMeL]DVPT[Aib][αMeL]LQKILEQERAEKARQQAK([γGlu-AEEA-εLys-C20 diacid])EAAEILAQV-NH2 [SEQ ID NO: 1, Ac-GSPSIVTS αMeL DVPT Aib αMeL LQKILEQERAEKARQQAK(γE-(2-[2-(2-Amino-ethoxy)-ethoxy]-acetyl)-ϵK-CO-(CH2)18-CO2H)EAAEILAQV-NH2]
5 | 6.9 ± 0.5 | > 1e+07 | {C20 diacid-εLys-AEEA-γGlu}-GSPSIVTS[αMeL]DVPT[Aib][αMeL]LQKILEQERAEKARQQATEAAEILAQV-NH2 [SEQ ID NO: 25]
